Data from ChEMBL document CHEMBL1201862, “PubChem BioAssay data set” (2004).
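Step 1: Grow cells in 96-well plates. Step 2: Expose to compound for 48 hours at 5 concentrations. Step 3: Interpolate endpoints linearly; if unreached, use highest concentration. Here, GI50 denotes the concentration required for 50% inhibition of growth.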 The source made the active and inactive calls. Rule as the data show it: active = GI50 up to about 1.1 µM and inactive = higher.

Tests used:
Test in all cases: NCI-60 cell line screen, 48 h
[1] = test system: SR
[2] = test system: MOLT-4
[3] = test system: OVCAR-4
[4] = test system: MDA-MB-231
[5] = test system: MDA-MB-435
[6] = test system: UACC-62
[7] = test system: Hs-578T
[8] = test system: NCI-H226
[9] = test system: SK-MEL-5
[10] = test system: 786-0
[11] = test system: M14
[12] = test system: NCI-H23
[13] = test system: EKVX
[14] = test system: HCT-15
[15] = test system: A549
[16] = test system: SF-295
[17] = test system: TK-10
[18] = test system: CCRF-CEM
[19] = test system: HOP-62
[20] = test system: SW-620
[21] = test system: NCI-H460
[22] = test system: OVCAR-3
[23] = test system: SF-539
[24] = test system: T47D
[25] = test system: HT-29
[26] = test system: OVCAR-8
[27] = test system: CAKI-1
[28] = test system: SK-OV-3
[29] = test system: SF-268
[30] = test system: HCT-116
[31] = test system: A498
[32] = test system: PC-3
[33] = test system: ACHN
[34] = test system: MCF7
[35] = test system: RXF 393
[36] = test system: NCI/ADR-RES
[37] = test system: DU-145
[38] = test system: COLO 205
[39] = test system: LOX IMVI
[40] = test system: HOP-92
[41] = test system: Malme-3M
[42] = test system: SN12C
[43] = test system: SK-MEL-28
[44] = test system: MDA-N
[45] = test system: HL-60
[46] = test system: SNB-19
[47] = test system: SK-MEL-2
[48] = test system: KM12
[49] = test system: OVCAR-5
[50] = test system: HCC 2998
[51] = test system: UACC-257
[52] = test system: UO-31
[53] = test system: U-251
[54] = test system: IGROV-1
[55] = test system: NCI-H522
[56] = test system: K562
[57] = test system: RPMI-8226
[58] = test system: BT-549

Measured: GI50

O=C1CSC(=O)/C1=C\NNc1nc2ccccc2o1
12 µM: [14]
active: [18] 1.09 µM | [45] 0.586 µM
inactive: [1] 24.5 µM | [2] 21 µM | [3] 38.3 µM | [4] 30.9 µM | [5] 65.9 µM | [6] 18 µM | [7] 52.7 µM | [8] 36 µM | [9] 14.4 µM | [10] 40.2 µM | [11] 19.3 µM | [12] 24.5 µM | [13] 34.5 µM | [15] 27.7 µM | [16] 19.9 µM | [17] 53.3 µM | [19] 51.8 µM | [20] 29.8 µM | [21] 23.8 µM | [22] 17.4 µM | [23] 11.4 µM | [24] 6.34 µM | [25] 24.7 µM | [26] 13.6 µM | [27] 23.9 µM | [28] 32.3 µM | [29] 30.5 µM | [30] 17 µM | [31] 25.5 µM | [32] 21.8 µM | [33] 32.6 µM | [34] 59.3 µM | [35] 21.8 µM | [36] 12.5 µM | [37] 47.5 µM | [38] 27 µM | [39] 22.4 µM | [40] 23.3 µM | [41] 31.5 µM | [42] 29.6 µM | [43] 67 µM | [44] 52.1 µM | [46] 19.6 µM | [47] 37.2 µM | [48] 67.9 µM | [49] 60.7 µM | [50] 54.1 µM | [51] 29.7 µM

CN(C)c1ccc([S+]([O-])Nc2ccccc2)cc1 (configuration not stated)
inactive: [1] 31.6 µM | [2] 53.8 µM | [3] 45 µM | [4] 33.3 µM | [5] 21.1 µM | [6] 22.5 µM | [7] 45 µM | [8] 38.4 µM | [9] 11.9 µM | [10] 35.4 µM | [52] 11.1 µM | [11] 38.5 µM | [12] 45.7 µM | [13] 32.8 µM | [15] 39 µM | [16] 48.8 µM | [17] > 100 µM | [18] > 100 µM | [19] 56 µM | [20] 51.2 µM | [21] 27.5 µM | [22] > 100 µM | [53] 19.3 µM | [23] > 100 µM | [24] 19.1 µM | [54] 30 µM | [25] 76.4 µM | [26] 30.5 µM | [55] 13.2 µM | [29] 45.6 µM | [30] 26.6 µM | [33] 29.6 µM | [56] 28.1 µM | [34] 29.4 µM | [36] 22.1 µM | [37] > 100 µM | [38] 24.6 µM | [57] 27.5 µM | [39] 38.9 µM | [41] 49.8 µM | [42] > 100 µM | [43] > 100 µM | [45] 28.1 µM | [46] 60.1 µM | [47] 35.8 µM | [48] 17.1 µM | [49] > 100 µM | [50] 34.6 µM | [51] 27.3 µM
active: [58] 0.52 µM
11.6 µM: [14]
